Measurements published in patent EP0180500A1, “Thieno and furo[2,3-c]pyrrole derivatives, process for their preparation and medicaments containing them” (LIPHA, LYONNAISE INDUSTRIELLE PHARMACEUTIQUE, priority 1984, dated 1986).

What was measured:
acidité gastrique = assay: Pylorus-ligated rats according to Shay (gastric antisecretory test); conditions: Rattus norvegicus, ip, 4 h, read-out: DE 50 et limites à 95 %
Description: Quatre heures plus tard, les animaux sont sacrifiés et le contenu des estomacs prélevé pour mesure de l'acidité. Les composés sont injectés intrapéritonéalement, juste après la ligature du pylore. La dose abaissant l'acidité gastrique de 50 % (DE 50) est calculée pour chaque composé, par rapport à un lot non traité. Chaque composé est testé à 3 doses géamétriquement espacées. Chaque lot comprend 10 rats.

[1] = tested on: récepteurs histaminiques H2; assay: Histamine-induced gastric hyperacidity in the anaesthetised rat;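 on all read-outs here: Read-out is the continuously recorded acidity of a saline perfusate flowing through the stomach and collected at the pylorus, with at least 3 rats per dose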; conditions: for DE 50 et limites à 95 %: dose reducing histamine-induced hyperacidity by 50 %, histamine infusion 25 µg/kg/minute, single i.v. dose, measured at peak action, 95 % limits in brackets; for Puissance relative Ranitidine = 1: relative potency from DE 50 I.V.
Description: Hyperacidité gastrique à l'histamine chez le rat anesthésié : (Black et Coll., Nature, 1972, 236, 385) : Des rats anesthésiés à l'éthylurétane reçoivent une perfusion continue d'histamine (25 µg/kg/minute)dans une veine jugulaire. L'estomac est continuellement perfusé par du sérum physiologique à 37°C, sous un débit constant de 3 ml/minute.
Une canule pylorique collecte le perfusat dont l'acidité est mesurée de façon continue. Chaque composé à examiner est administré par la voie intraveineuse (une seule dose par rat).L'inhibition de l'acidité est mesurée au délai correspondant au maximum d'action (délai variable d'un composé à un autre). Un minimum de 3 rats est utilisé pour chaque dose essayée. On détermine, pour chaque composé actif de l'invention, la dose diminuant de 50 % (DE 50), l'hyperacidité induite par l'histamine. On mesure en outre, pour les composés les plus actifs, la durée d'action résultant de l'injection intraveineuse d'une dose unique correspondant à la DE 50 arrondie.

[2] = biological target: récepteurs histaminiques H2 (Cavia porcellus, UniProt P47747); assay: Isolated guinea-pig atrium (histamine chronotropic effect, H2 blockade)
Sequence of récepteurs histaminiques H2 (Cavia porcellus, UniProt P47747) (P47747 whole entry): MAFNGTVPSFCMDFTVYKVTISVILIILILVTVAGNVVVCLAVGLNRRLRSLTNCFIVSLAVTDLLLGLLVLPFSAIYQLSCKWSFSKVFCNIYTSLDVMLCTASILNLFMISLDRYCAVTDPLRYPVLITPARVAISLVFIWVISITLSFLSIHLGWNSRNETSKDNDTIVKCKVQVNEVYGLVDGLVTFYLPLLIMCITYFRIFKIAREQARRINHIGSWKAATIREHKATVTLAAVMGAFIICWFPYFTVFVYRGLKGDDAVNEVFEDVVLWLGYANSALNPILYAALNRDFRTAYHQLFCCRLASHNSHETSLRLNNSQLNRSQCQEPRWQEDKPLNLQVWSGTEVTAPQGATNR
Description: Oreillette isolée de cobaye : Des cobayes albinos pesant entre 300 et 400 g sont assomés et saignés. Après ouverture du thorax, l'oreillette droite est rapidement dégagée et placée dans une cuve à organe isolé contenant 100 ml de Krebs (composition en g/1 : NaCl 6,9 - KCl 0,35 - CaCl2 0,28 - Mg SO4 0,14 - NaHCO3 2,09 - KH2 P04 0,16, glucose 2) maintenu à 32°C et fortement oxygéné (95 % 02, 5 % CO2).
L'oreillette est reliée à une jauge de contrainte isométrique, sous une tension de 1 g. Les battements spontanés sont enregistrés sur un enregistreur galvanométrique.
Après une période de stabilisation de 1 heure, des doses cumulées d'histamine sont ajoutées au milieu de survie, toutes les 5 minutes, ce qui occasionne une accélération des battements par stimulation des récepteurs de l'histamine qui, dans les tissus cardiaques sont de nature H2. L'histamine est ajoutée jusqu'à ce que le rythme de l'oreillette n'augmente plus (effet maximum). On peut alors tracer la courbe représentant la variation du rythme en fonction de la concentration d'histamine dans le bain. Après rinçages et repos de 30 minutes, la même expérimentation est reprise 30 minutes après avoir ajouté un antagoniste H2 dans le bain (composé de l'invention ou produit de référence) .
Chaque composé est ainsi testé à 3 concentrations géométriquement croissantes qui provoquent, en cas de blocage des récepteurs H2, un déplacement vers la droite des courbes concentration d'histamine/effet chronotrope. Pour chaque composé actif, nous déterminons un pA2, c'est à dire le cologarithme de la concentration du composé de l'essai pour laquelle il faut doubler la concentration d'histamine afin de retrouver un effet chronotrope donné. […] Un minimum de 3 oreillettes est utilisé pour chaque composé essayé.
Cette préparation permet aussi de se rendre compte de la nature, réversible ou non, de l'inhibition. Dans le premier cas, il sera toujours possible de déplacer l'antagoniste des récepteurs en pratiquant des rinçages répétés ou en utilisant une concentration plus forte d'histamine, ce qui se traduira par des courbes concentration d'histamine/ef- fet chronotrope, parallèles mais supexposables.
Par contre, dans le deuxième cas (inhibition difficilement réversible), l'antagonisme H2 ne peut être complètement levé, ni par rinçages ni par des concentrations élevées d'histamine, ce qui se traduit par des courbes dose/effet non superposables (l'effet chronotrope maximum est de plus en plus faible quand la concentration de l'antagoniste H2 croit).

rats = conditions: rat, in vivo, iv
Description: (§1) Les composés de l'invention sont en général très peu toxiques.

souris = conditions: in vivo, iv
Description: as §1

Row | Kb [2] | Compound | ED50 (acidité gastrique) | DE 50 et limites à 95 % [1] | Puissance relative Ranitidine = 1 [1] | effet toxique (rats) | effet toxique (souris)
1 | 0.0776 µM | CCN1Cc2cc(CSCCNC(=C[N+](=O)[O-])NC)sc2C1 [Exemple 3, N-[ [ (Ethyl-5 dihydro-5,6-4H-thiéno [2,3-c]pyrrolyl-2)méthylthio]-2 éthyl]N'-méthyl nitro-2 éthènediamine-1,1] | 8 mg/kg | 0,3 (0,1 -0,9) mg/kg/I.V. | 0,3 |  | 
2 | 0.129 µM | CCN1Cc2cc(CSCCC(N)=NS(N)(=O)=O)sc2C1 [Exemple 8, [ (Ethyl-5 dihydro-5,6-4H-thiéno [2,3-c]pyrrolyl-2)méthylthio]-3 N-sulfamoyl propanamidine] | 18 mg/kg | 0,5 (0,18-1,4) mg/kg/I.V. | 0,18 |  | 
3 | 0.0794 µM | C#CCNc1n[s+]([O-])nc1NCCSCc1cc2c(s1)CN(CC)C2 (centres unmarked) [Exemple 21, N-[ [ (Ethyl-5 dihydro-5,6-4H-thiéno [2,3-c]pyrrolyl-2)méthylthio]-2 éthyl] N'-propargyl oxyde-1 thiadiazole [1,2,5] diamine-3,4] | 32 mg/kg | 0,6 (0,3 -1,2) mg/kg/I.V. | 0,15 |  | 
4 |  | N-[ [ (Isobutyl-5 dihydro-5,6-4H-thiéno [ 2,3-c ] pyrrolyl-2) méthylthio ]-2 éthyl J oxyde-1 thiadiazole [ 1,2,5 ] diamine-3,4 [Exemple 29] |  | 0,1 (0,04-0,25) mg/kg/I.V. | 0,9 |  | 
5 | 0.0891 µM | CCCCCN1Cc2cc(CSCCNC(=C[N+](=O)[O-])NC)sc2C1 [Exemple 18, N-[ [ (Dihydro-5,6 n.pentyl-5-4H-thiéno [2,3-c]pyrrolyl-2)méthylthio]-2 éthyl]N'-méthyl nitro-2 éthène diamine-1,1] | 15 mg/kg | 0,5 (0,17-1,5) mg/kg/I.V. | 0,18 |  | 
6 |  | CNC(=NC#N)NCCSCc1[nH]cnc1C [Cimétidine, reference compound] | 42 mg/kg | 0,4 (0,18-0,9) mg/kg/I.V. |  |  | 
7 | 0.0646 µM | CCCCCCN1Cc2cc(CSCCNc3n[s+]([O-])nc3N)sc2C1 (centres unmarked) [Exemple 30, N-[ [ (n.Hexyl-5 dihydro-5,5-4H-thiéno [2,3-c]pyrrolyl-2)méthylthio]-2 éthyl] oxyde-1 thiadiazole [1,2,5] diamine-3,4] | 0.5 mg/kg | 0,2 (0,07-0,6) mg/kg/I.V. | 0,45 |  | 
8 | 1.26 µM | CCN1Cc2sc(CSCCNC(=C[N+](=O)[O-])NC)c(C)c2C1 [Exemple 19] | > 50 mg/kg | > 5 mg/kg/I.V. |  |  | 
9 | 1.32 µM | CNC(=C[N+](=O)[O-])NCCCOc1cccc2c1CCN(C)C2 [Composé A, N-méthyl N' - [(méthyl-2 tétrahydro-1,2,3,4 isoqwnoléine-5 oxy)-3 propyl] nitro-2 éthène diamine-1,1, reference compound] | > 50 mg/kg | > 5 mg/kg/I.V. |  |  | 
10 | 0.0427 µM | CCCCN1Cc2cc(CSCCNc3n[s+]([O-])nc3N)sc2C1 (centres unmarked) [Exemple 28] | 1 mg/kg | 0,2 (0,08-0,5) mg/kg/I.V. | 0,45 |  | 
11 | 0.105 µM | CCN1Cc2cc(CSCCNC(=NC#N)NC)sc2C1 [Exemple 1] | 19 mg/kg | 0,6 (0,25-1,5) mg/kg/I.V. | 0,15 |  | 
12 | 0.0309 µM | CCCCCN1Cc2cc(CSCCNc3n[s+]([O-])nc3N)sc2C1 (centres unmarked) [Exemple 31] | 3.6 mg/kg | 0,15 (0,07-0,3) mg/kg/I.V. | 0,6 |  | 
13 | 0.0631 µM | CCCN1Cc2cc(CSCCNc3c(N)c(=O)c3=O)sc2C1 [Exemple 34, Amino-3 [ [ (dihydro-5,6 n.propyl-5-4H-thiéno [2,3-c]pyrrolyl-2)méthylthio]-2 éthylamino]-4 cyclobutène dione-1,2] | 11 mg/kg | 0,25 (0,12-0,5) mg/kg/I.V. | 0,36 |  | 
14 |  | N-Cyano N' -[ [ (dihydro-5,6 isopropyl-5-4H-thiéno [2,3-c] pyrrolyl-2) méthylthio]-2 éthyl] N" méthyl guanidine [Exemple 6] |  | > 5 mg/kg/I.V. |  |  | 
15 | 0.0209 µM | CCN1Cc2cc(CSCCNc3n[s+]([O-])nc3N)sc2C1 (centres unmarked) [Exemple 13, N-[ [ (Ethyl-5 dihydro-5,6-4H-thiéno [2,3-c]pyrrolyl-2)méthylthio]-2 éthyl] oxyde-1 thiadiazole [1,2,5,] diamine-3,4] | 1.5 mg/kg | 0,03 (0,02-0,05) mg/kg/I.V. | 3 |  | 
16 | 0.049 µM | COCCN1Cc2cc(CSCCNc3n[s+]([O-])nc3N)sc2C1 (centres unmarked) [Exemple 33, N-[ [ [Dihydro-5,6 (méthoxy-2 éthyl) -5-4H-thiéno [2,3-c]pyrolyl-2]méthylthio]-2 éthyl] oxyde-1 thiadiazole [1,2,5] diamine-3,4] | 0.7 mg/kg | 0,2 (0,08-0,5) mg/kg/I.V. | 0,45 |  | 
17 |  | CCN1Cc2cc(CSCCNc3nc(N)nn3C)sc2C1 [Exemple 11] |  | 0,4 (0,15-1) mg/kg/I.V. | 0,22 |  | 
18 | 0.0363 µM | CNC(=C[N+](=O)[O-])NCCSCc1ccc(CN(C)C)o1 [Ranitidine, reference compound] | 14 mg/kg | 0,09 (0,05-0,17) mg/kg/I.V. | 1 |  | 
19 | 0.0427 µM | CCN1Cc2cc(CSCCNc3n[s+]([O-])nc3NC)sc2C1 (centres unmarked) [Exemple 20, N-[ [ (Ethyl-5 dihydro-5,6-4H-thiéno [2,3-c]pyrrolyl-2)méthylthio]-2 éthyl]N'-méthyl oxyde-1 thiadiazole-[1,2,5] diamine-3,4] | 20 mg/kg | 0,1 (0,03-0,3) mg/kg/I.V. | 0,9 |  | 

Row | Compound | Kb [2] | ED50 (acidité gastrique) | DE 50 et limites à 95 % [1] | Puissance relative Ranitidine = 1 [1] | effet toxique (rats) | effet toxique (souris)
20 | CCCN1Cc2cc(CSCCNc3n[s+]([O-])nc3N)sc2C1 (centres unmarked) [Exemple 22] | 0.017 µM | 0.5 mg/kg | 0,05 (0,02-0,11) mg/kg/I.V. | 1,8 | aucun effet toxique | aucun effet toxique
